Assay results as given in patent publication US20060183043A1, “Electrophotographic photoreceptor containing pyridine-substituted asymmetric naphthalenetetracarboxylic acid diimide derivatives and electrophotographic imaging apparatus” (Samsung Electronics Co., Ltd., priority 2005, published 2006).

Assay: Solubility test (amount of organic solvent needed to completely dissolve 1 g of compound)
Assay type: physicochemical
Conditions: 1 g compound, room temperature, solvent added drop by drop with stirring
Procedure: 1 g of a compound to be tested was poured into a test tube with stirring at room temperature and solvents listed in Table 1 were slowly added drop by drop. The amounts of the solvents required to completely dissolve 1 g of the tested compound were measured.

| Amount of solvent required to completely dissolve 1 g of the tested compound: Acetone [g] | Amount of solvent required to completely dissolve 1 g of the tested compound: Chloroform [g] | Amount of solvent required to completely dissolve 1 g of the tested compound: Methylene chloride [g] | Amount of solvent required to completely dissolve 1 g of the tested compound: Tetrahydrofuran [g] | Compound |
| --- | --- | --- | --- | --- |
| 130 | 5.3 | 6.5 | 5.8 | CCc1ccc(C)nc1N1C(=O)c2ccc3c4c(ccc(c24)C1=O)C(=O)N(c1ccccc1)C3=O [Compound (1)] |
| 282 | 8.6 | 10.2 | 9.7 | CCc1ccc(C)nc1N1C(=O)c2ccc3c4c(ccc(c24)C1=O)C(=O)N(c1nc(C)ccc1CC)C3=O [Compound (40)] |
